According to patent US12251382B2, “Substituted amino-pyrimidine compound for use in a method for treatment and prevention of multiple sclerosis” (Merck Patent GmbH, priority 2018, dated 2025):

Test system: human patients suffering from relapsing multiple sclerosis (RMS)
Assay: Phase II RMS study: qualified relapse assessment (ARR, relapse-free status)
Format: in vivo
Conditions: for Qualified relapse rate, adjusted / Qualified relapses, number of relapses: 24 weeks; for Proportion relapse-free / Unadjusted ARR: Week 24
Experimental: The assessing Investigator and central MRI reader were treatment blinded.
Subjects were assessed for MS relapse at visits beginning at Week 4. Relapse was also assessed at any Unscheduled Visit for Neurological Worsening and Relapse Assessment. For subjects in the OLE Period, MS relapse was assessed at all visits. A qualifying relapse was defined as new, worsening or recurrent neurological symptoms attributed to MS that last for at least 24 hours without fever or infection, or adverse reaction to prescribed medication, preceded by a stable or improving neurological status of at least 30 days. The relapse must have been accompanied by new clinical signs (i.e., changes in the neurological examination or an increase in EDSS score).
The protocol specified that all cases of potential relapse were to be objectively confirmed by the Investigator regardless of whether they were identified during a scheduled or unscheduled visit. Any assessments needed to confirm the relapse were to be performed, and details of the relapse were to be documented within the relevant section(s) of the eCRF.
Additional Secondary Endpoints
Analysis of secondary endpoints was based on the mITT analysis set. […] Descriptive statistics for ARR were calculated for each treatment group as the total number of qualified relapses divided by the number of subject-years of observation.
Primary and secondary efficacy endpoints were analysed based on the modified intention-to-treat (mITT) analysis set, consisting of all randomized patients with at least one available baseline and one post-baseline MRI assessment. […] For each endpoint, rate ratio (RR; null-hypothesis RR=1.0) adjusted for baseline disease activity was reported together with associated 95% CI and p-value. The T2 lesion endpoint was analysed similarly. Dose-response relationships between evobrutinib treatment dose and primary and key secondary endpoints were assessed for linear and monotonic trend. The analysis of CFB in cube root of volume of T2 lesions at Week 24 was based on a mixed-effect model for repeated measures, with fixed effects for treatment, week of visit, and treatment-by-week interaction, random effect for subject, and adjustment for baseline cube root of lesion volume. CFB in SF-36 score at Week 24 was analysed similarly. Descriptive statistics were used to further describe the study outcomes.

C=CC(=O)N1CCC(CNc2ncnc(N)c2-c2ccc(Oc3ccccc3)cc2)CC1 [Evobrutinib, 1-(4-(((6-amino-5-(4-phenoxyphenyl)pyrimidin-4-yl)amino)methyl)piperidin-1-yl)prop-2-en-1-one]
Qualified relapse rate, adjusted (25 mg QD): 0.47 | Qualified relapses, number of relapses (25 mg QD): 12 n | Proportion relapse-free (25 mg QD): 76.0% | Unadjusted ARR (25 mg QD): 0.52 | Proportion relapse-free (25 mg QD, listed as evobrutinib): 76% | Qualified relapse rate, adjusted (75 mg BID): 0.07 | Qualified relapses, number of relapses (75 mg BID): 2 n | Proportion relapse-free (75 mg BID): 86.8% | Unadjusted ARR (75 mg BID): 0.08 | Proportion relapse-free (75 mg BID, listed as evobrutinib): 87% | Qualified relapse rate, adjusted (75 mg QD): 0.10 | Qualified relapses, number of relapses (75 mg QD): 3 n | Proportion relapse-free (75 mg QD): 88.2% | Unadjusted ARR (75 mg QD): 0.13 | Proportion relapse-free (75 mg QD, listed as evobrutinib): 88%
